Measurements reported in PMC7150767, “Monocarboxylate Transporter 6-Mediated Interactions with Prostaglandin F2α: In Vitro and In Vivo Evidence Utilizing a Knockout Mouse Model” (Pharmaceutics, 2020).
One block for each molecule: values may come before it.

How the values were obtained:
[1] = target: T1, human monocarboxylate transporter 6 (hMCT6) (Homo sapiens, UniProt O15375); assay: cis-inhibition of [3H]PGF2α uptake in oocytes at […]; type: cell-based; settings: read-out: % inhibition at 10 μM (range over the PGs)
T1 construct: gene SLC16A5
T1 sequence (O15375 1-505): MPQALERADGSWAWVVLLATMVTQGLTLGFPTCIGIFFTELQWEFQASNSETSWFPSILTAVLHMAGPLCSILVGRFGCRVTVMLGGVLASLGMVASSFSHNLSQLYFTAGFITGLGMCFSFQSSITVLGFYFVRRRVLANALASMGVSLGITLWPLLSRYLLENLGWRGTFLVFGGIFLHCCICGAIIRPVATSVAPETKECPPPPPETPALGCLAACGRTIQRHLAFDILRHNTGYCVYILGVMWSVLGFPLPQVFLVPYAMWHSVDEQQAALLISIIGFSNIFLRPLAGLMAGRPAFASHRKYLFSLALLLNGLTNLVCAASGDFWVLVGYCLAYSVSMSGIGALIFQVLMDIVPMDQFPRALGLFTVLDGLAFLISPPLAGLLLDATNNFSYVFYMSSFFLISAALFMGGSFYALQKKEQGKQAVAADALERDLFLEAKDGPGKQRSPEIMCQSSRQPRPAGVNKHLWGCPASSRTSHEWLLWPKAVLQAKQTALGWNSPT

[2] = target: T2, murine monocarboxylate transporter 6 (mMct6) (Mus musculus, UniProt G5E8K6); assay: cis-inhibition of [3H]PGF2α uptake in oocytes, […] ([…] inhibition); type: cell-based
T2 construct: gene Slc16a5; full-length, untagged, cRNA in Xenopus laevis oocytes
T2 sequence (G5E8K6 1-468): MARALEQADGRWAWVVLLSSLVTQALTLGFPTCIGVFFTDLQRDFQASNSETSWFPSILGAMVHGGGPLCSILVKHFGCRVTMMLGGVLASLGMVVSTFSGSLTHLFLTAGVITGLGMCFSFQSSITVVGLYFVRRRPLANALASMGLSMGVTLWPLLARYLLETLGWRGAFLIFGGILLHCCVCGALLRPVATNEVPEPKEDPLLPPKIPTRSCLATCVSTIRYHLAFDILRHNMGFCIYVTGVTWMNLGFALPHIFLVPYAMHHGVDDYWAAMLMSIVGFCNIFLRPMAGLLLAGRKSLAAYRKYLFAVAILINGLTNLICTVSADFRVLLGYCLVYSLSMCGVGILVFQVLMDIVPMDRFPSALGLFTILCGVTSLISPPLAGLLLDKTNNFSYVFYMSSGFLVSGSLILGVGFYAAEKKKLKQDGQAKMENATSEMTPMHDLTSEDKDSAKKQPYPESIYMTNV

[3] = target: T1, human monocarboxylate transporter 6 (hMCT6); assay: cis-inhibition of [3H]PGF2α uptake in oocytes; type: cell-based
[4] = target: T2, murine monocarboxylate transporter 6 (mMct6); assay: cis-inhibition of [3H]PGF2α uptake in oocytes, […] ([…] inhibition); type: cell-based; remark: listed apart in the source
[5] = substrate: CCCCC[C@H](O)/C=C/[C@@H]1[C@@H](C/C=C\CCCC(=O)O)[C@@H](O)C[C@H]1O; assay: cells, lysate or membranes; type: cell-based, Mus musculus; settings: pH 7.4
[6] = substrate: CCCCC[C@H](O)/C=C/[C@@H]1[C@@H](C/C=C\CCCC(=O)O)[C@@H](O)C[C@H]1O; assay: cells, lysate or membranes; type: cell-based, Homo sapiens; settings: pH 7.4

inhibition at 10 µM [1]: 51 to 74%
Molecule: CCCCC[C@H](O)/C=C/[C@@H]1[C@@H](CC(=O)CCCCC(=O)O)[C@@H](O)C[C@H]1O [6-keto prostaglandin F1α]

inhibition at 10 µM [2]: ~28%
Molecule: CCCCNc1cc(C(=O)O)cc(S(N)(=O)=O)c1Oc1ccccc1 [bumetanide]
cis-inhibition of [3H]PGF2α uptake in oocytes [3]: Bumetanide and probenecid also inhibited human MCT6-mediated PGF2α uptake

inhibition at 500 µM [4]: ~94%
Molecule: CCCN(CCC)S(=O)(=O)c1ccc(C(=O)O)cc1 [probenecid]
cis-inhibition of [3H]PGF2α uptake in oocytes [3]: Bumetanide and probenecid also inhibited human MCT6-mediated PGF2α uptake

Molecule: CCCCC[C@H](O)/C=C/[C@H]1C(=O)C[C@H](O)[C@@H]1C/C=C\CCCC(=O)O [prostaglandin D2]
inhibition at 10 µM [1]: 51 to 74%

Molecule: CCCCC[C@H](O)/C=C/[C@H]1[C@H](O)CC(=O)[C@@H]1C/C=C\CCCC(=O)O [prostaglandin E2]
inhibition at 10 µM [1]: 51 to 74%

B1: murine monocarboxylate transporter 6 (mMct6) (Mus musculus) (protein)
chain: MARALEQADGRWAWVVLLSSLVTQALTLGFPTCIGVFFTDLQRDFQASNSETSWFPSILGAMVHGGGPLCSILVKHFGCRVTMMLGGVLASLGMVVSTFSGSLTHLFLTAGVITGLGMCFSFQSSITVVGLYFVRRRPLANALASMGLSMGVTLWPLLARYLLETLGWRGAFLIFGGILLHCCVCGALLRPVATNEVPEPKEDPLLPPKIPTRSCLATCVSTIRYHLAFDILRHNMGFCIYVTGVTWMNLGFALPHIFLVPYAMHHGVDDYWAAMLMSIVGFCNIFLRPMAGLLLAGRKSLAAYRKYLFAVAILINGLTNLICTVSADFRVLLGYCLVYSLSMCGVGILVFQVLMDIVPMDRFPSALGLFTILCGVTSLISPPLAGLLLDKTNNFSYVFYMSSGFLVSGSLILGVGFYAAEKKKLKQDGQAKMENATSEMTPMHDLTSEDKDSAKKQPYPESIYMTNV
notes: full-length, untagged, cRNA (NM_001080934.1) in Xenopus laevis oocytes
Km [5]: 40.1 µM

B2: human monocarboxylate transporter 6 (hMCT6) (Homo sapiens) (protein)
chain: MPQALERADGSWAWVVLLATMVTQGLTLGFPTCIGIFFTELQWEFQASNSETSWFPSILTAVLHMAGPLCSILVGRFGCRVTVMLGGVLASLGMVASSFSHNLSQLYFTAGFITGLGMCFSFQSSITVLGFYFVRRRVLANALASMGVSLGITLWPLLSRYLLENLGWRGTFLVFGGIFLHCCICGAIIRPVATSVAPETKECPPPPPETPALGCLAACGRTIQRHLAFDILRHNTGYCVYILGVMWSVLGFPLPQVFLVPYAMWHSVDEQQAALLISIIGFSNIFLRPLAGLMAGRPAFASHRKYLFSLALLLNGLTNLVCAASGDFWVLVGYCLAYSVSMSGIGALIFQVLMDIVPMDQFPRALGLFTVLDGLAFLISPPLAGLLLDATNNFSYVFYMSSFFLISAALFMGGSFYALQKKEQGKQAVAADALERDLFLEAKDGPGKQRSPEIMCQSSRQPRPAGVNKHLWGCPASSRTSHEWLLWPKAVLQAKQTALGWNSPT
notes: pGH19-hMCT6 cRNA in Xenopus laevis oocytes
Km [6]: 246 µM
